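Protocol summary: plate cells (96-well), add compound at 5 concentrations, incubate 48 h, interpolate endpoints linearly. TGI: concentration producing complete growth inhibition.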
Assays:
Assay in all cases: NCI anticancer screen, dose series, 48 h
786-0 renal = test system: 786-0 renal
HOP-92 NSCLC = test system: HOP-92 NSCLC
HL-60(TB) leukemia = test system: HL-60(TB) leukemia
UACC-257 melanoma = test system: UACC-257 melanoma
A498 renal = test system: A498 renal
U251 CNS = test system: U251 CNS
SK-MEL-5 melanoma = test system: SK-MEL-5 melanoma
CCRF-CEM leukemia = test system: CCRF-CEM leukemia
SW-620 colon = test system: SW-620 colon
SR leukemia = test system: SR leukemia
OVCAR-5 ovarian = test system: OVCAR-5 ovarian
TK-10 renal = test system: TK-10 renal
HCT-15 colon = test system: HCT-15 colon
RPMI-8226 leukemia = test system: RPMI-8226 leukemia
HCC-2998 colon = test system: HCC-2998 colon
T-47D breast = test system: T-47D breast
NCI-H522 lung = test system: NCI-H522 lung
BT-549 breast = test system: BT-549 breast
MALME-3M melanoma = test system: MALME-3M melanoma
CAKI-1 renal = test system: CAKI-1 renal
SN12C renal = test system: SN12C renal
SK-OV-3 ovarian = test system: SK-OV-3 ovarian
OVCAR-8 ovarian = test system: OVCAR-8 ovarian
OVCAR-4 ovarian = test system: OVCAR-4 ovarian
COLO 205 colon = test system: COLO 205 colon
DU-145 prostate = test system: DU-145 prostate
SK-MEL-2 melanoma = test system: SK-MEL-2 melanoma
NCI/ADR-RES ovarian = test system: NCI/ADR-RES ovarian
RXF 393 renal = test system: RXF 393 renal
SK-MEL-28 melanoma = test system: SK-MEL-28 melanoma
MOLT-4 leukemia = test system: MOLT-4 leukemia
UACC-62 melanoma = test system: UACC-62 melanoma
NCI-H226 lung = test system: NCI-H226 lung
SF-268 CNS = test system: SF-268 CNS
M14 melanoma = test system: M14 melanoma
SF-295 CNS = test system: SF-295 CNS
IGROV1 ovarian = test system: IGROV1 ovarian
SNB-75 CNS = test system: SNB-75 CNS
PC-3 prostate = test system: PC-3 prostate
MDA-MB-435 = test system: MDA-MB-435
OVCAR-3 ovarian = test system: OVCAR-3 ovarian
LOX IMVI melanoma = test system: LOX IMVI melanoma
MDA-MB-231 breast = test system: MDA-MB-231 breast
A549 NSCLC = test system: A549 NSCLC
HOP-62 NSCLC = test system: HOP-62 NSCLC
HT29 colon = test system: HT29 colon
MCF7 breast = test system: MCF7 breast
KM12 colon = test system: KM12 colon
HCT-116 colon = test system: HCT-116 colon
UO-31 renal = test system: UO-31 renal
HS 578T breast = test system: HS 578T breast
SF-539 CNS = test system: SF-539 CNS
EKVX NSCLC = test system: EKVX NSCLC
MDA-N = test system: MDA-N
NCI-H23 lung = test system: NCI-H23 lung

CC(C)(C)O/N=C/c1cc(NC(=S)c2ccsc2)ccc1Cl
TGI (786-0 renal): 31.6 µM
TGI (HOP-92 NSCLC): 37.7 µM
TGI (HL-60(TB) leukemia): 39 µM
TGI (UACC-257 melanoma): 25.2 µM
TGI (A498 renal): 24.9 µM
TGI (U251 CNS): 43.8 µM
TGI (SK-MEL-5 melanoma): 16.9 µM
TGI (CCRF-CEM leukemia): 57.3 µM
TGI (SW-620 colon): 55.2 µM
TGI (SR leukemia): 13.9 µM
TGI (OVCAR-5 ovarian): 32.9 µM
TGI (TK-10 renal): 26.6 µM
TGI (HCT-15 colon): 27.7 µM
TGI (RPMI-8226 leukemia): 12.2 µM
TGI (HCC-2998 colon): 27.6 µM
TGI (T-47D breast): 16.1 µM
TGI (NCI-H522 lung): 33.6 µM
TGI (BT-549 breast): 27 µM
TGI (MALME-3M melanoma): 31.5 µM
TGI (CAKI-1 renal): 30.2 µM
TGI (SN12C renal): 32.2 µM
TGI (SK-OV-3 ovarian): 46.8 µM
TGI (OVCAR-8 ovarian): 29.7 µM
TGI (OVCAR-4 ovarian): 28.7 µM
TGI (COLO 205 colon): 28.3 µM
TGI (DU-145 prostate): 17.1 µM
TGI (SK-MEL-2 melanoma): 29.5 µM
TGI (NCI/ADR-RES ovarian): 33.9 µM
TGI (RXF 393 renal): 36.8 µM
TGI (SK-MEL-28 melanoma): 39.2 µM
TGI (MOLT-4 leukemia): 26.1 µM
TGI (UACC-62 melanoma): 28.8 µM
TGI (NCI-H226 lung): 35.9 µM
TGI (SF-268 CNS): 38.2 µM
TGI (M14 melanoma): 31.4 µM
TGI (SF-295 CNS): 25.3 µM
TGI (IGROV1 ovarian): 34.9 µM
TGI (SNB-75 CNS): 77.4 µM
TGI (PC-3 prostate): 26.1 µM
TGI (MDA-MB-435): 38.5 µM
TGI (OVCAR-3 ovarian): 28.1 µM
TGI (LOX IMVI melanoma): 30.7 µM
TGI (MDA-MB-231 breast): 32.1 µM
TGI (A549 NSCLC): 63.8 µM
TGI (HOP-62 NSCLC): 29.4 µM
TGI (HT29 colon): 26.1 µM
TGI (MCF7 breast): 24.8 µM
TGI (KM12 colon): 23.3 µM
TGI (HCT-116 colon): 26.5 µM
TGI (UO-31 renal): 24.6 µM
TGI (HS 578T breast): 57 µM
TGI (SF-539 CNS): 37 µM
TGI (EKVX NSCLC): 41.1 µM
TGI (MDA-N): 29.8 µM
TGI (NCI-H23 lung): 20.7 µM
